*1 amine or outer side, *2 acyl side, *3 side chain or, on linkers, in order; H or OH if unused. Where a SMILES comes first, the peptide text is derived from it. [ ]: non-standard residue; d: D form. The star is where a group is joined. ξ: configuration not given here. ξGly(tetradecyl) = CCCCCCCCCCCCCCC(N)C(=O)O; X1 = CCCCCCCCCCCCCC(N[*:1])C(=O)[*:2]; Palmitoyl = CCCCCCCCCCCCCCCC(=O)* Where only a bound is given, the exact number is not on record here.

16 compounds from ChEMBL document CHEMBL5352385, “Marine natural products and their synthetic analogs as promising antibiofilm agents for antibiotics discovery and development” (Eur J Med Chem, 2022) can be followed below.

Holding throughout (type): functional
Test [1] has as its system Pseudomonas aeruginosa. Kind of test: Antibiofilm activity against Pseudomonas aeruginosa PA01 assessed as inhibition of biofilm formation at 800 ug/ml relative to control. More on the design: scale not given: the % may be the effect or the level left. As to conditions: dose 800 µg/ml.
Test [2] has as its system Staphylococcus aureus. The test can be described thus: Antibiofilm activity against Staphylococcus aureus MTCC 96 at 2 ug/ml incubated for 18 hrs by crystal violet staining based analysis relative to control. As to conditions: dose 2 µg/ml.
Test [3] relates to Bacillus subtilis. The test can be described thus: Antibiofilm activity against Bacillus subtilis MTCC 619 at 2 ug/ml incubated for 18 hrs by crystal violet staining based analysis relative to control. As to conditions: dose 2 µg/ml.
A further test concerns Vibrio cholerae. Kind of test: Antibiofilm activity against Vibrio cholerae MTCC 3906 at 2 ug/ml incubated for 18 hrs by crystal violet staining based analysis relative to control. As to conditions: dose 2 µg/ml.
The next test relates to Escherichia coli. Kind of test: Antibiofilm activity against Escherichia coli at 50.9 ug/ml relative to control. As to conditions: dose 50.9 µg/ml.
The test system of test [4] is Streptococcus mutans. Kind of test: Antibiofilm activity against Streptococcus mutans at 5 ug/ml relative to control. As to conditions: dose 5 µg/ml.
The subject of test [5] is Staphylococcus aureus. The test can be described thus: Antibiofilm activity against Staphylococcus aureus ATCC 6538 at 12.5 ug/ml relative to control. As to conditions: dose 12.5 µg/ml.
Test [6] concerns Serratia marcescens. The test can be described thus: Antibiofilm activity against Serratia marcescens FJ584421 assessed as inhibition of biofilm formation at 300 ug/ml relative to control. As to conditions: dose 300 µg/ml. Also on record: scale not given: the % may be the effect or the level left.
Test [7] relates to Streptococcus mutans. The test can be described thus: Antibiofilm activity against clinical isolates Streptococcus mutans assessed as inhibition of biofilm formation at 3.0 ug/ml relative to control. Also on record: scale not given: the % may be the effect or the level left. As to conditions: dose 3 µg/ml.
Test [8] has as its system Streptococcus mutans. The test can be described thus: Antibiofilm activity against Streptococcus mutans UA159 assessed as inhibition of biofilm formation at 3.0 ug/ml relative to control. As to conditions: dose 3 µg/ml. More on the design: scale not given: the % may be the effect or the level left.
Test [9] deals with Candida albicans. Kind of test: Antibiofilm activity against Candida albicans assessed as reduction in biofilm formation at 100 ug/ml measured after 48 hrs by crystal violet staining based analysis relative to control. More on the design: scale not given: the % may be the effect or the level left. As to conditions: dose 100 µg/ml.
Test [10] concerns Staphylococcus aureus. The test can be described thus: Antibiofilm activity against methicillin-resistant Staphylococcus aureus 33591 assessed as reduction in biofilm formation at 50 ug/ml measured after 24 hrs by crystal violet staining based analysis relative to control. Also on record: scale not given: the % may be the effect or the level left. As to conditions: dose 50 µg/ml.

A further test has as its system Bacillus sp. Kind of test: Antibiofilm activity against Bacillus sp. 176 at 300 ug/ml relative to control. As to conditions: dose 300 µg/ml.
In test [11] the test system is Pseudomonas aeruginosa. Kind of test: Antibiofilm activity against Pseudomonas aeruginosa at 300 ug/ml relative to control. As to conditions: dose 300 µg/ml.
Test [12] has as its system Bacillus subtilis. The test can be described thus: Antibiofilm activity against Bacillus subtilis at 300 ug/ml relative to control. As to conditions: dose 300 µg/ml.
For another test, the system named is Vibrio anguillarum. Kind of test: Antibiofilm activity against Vibrio anguillarum at 300 ug/ml relative to control. As to conditions: dose 300 µg/ml.
Test [13] concerns Pseudomonas aeruginosa. The test can be described thus: Antibiofilm activity against Pseudomonas aeruginosa PA01 assessed as inhibition of biofilm formation at 100 ug/ml by microdilution plate method relative to control. More on the design: scale not given: the % may be the effect or the level left. As to conditions: dose 100 µg/ml.
Test [14] relates to Candida albicans. Kind of test: Antibiofilm activity against Candida albicans BH assessed as inhibition of biofilm formation at 25 ug/ml by microdilution plate method relative to control. As to conditions: dose 25 µg/ml. Also on record: scale not given: the % may be the effect or the level left.
Another test has as its system Bacillus pumilus. Kind of test: Antibiofilm activity against Bacillus pumilus TiO1 assessed as inhibition of biofilm formation at 12.5 ug/ml by microdilution plate method relative to control. More on the design: scale not given: the % may be the effect or the level left. As to conditions: dose 12.5 µg/ml.
In test [15] the test system is Pseudomonas aeruginosa. The test can be described thus: Antibiofilm activity against Pseudomonas aeruginosa PA01 assessed as inhibition of biofilm formation at 25 ug/ml by microdilution plate method relative to control. Also on record: scale not given: the % may be the effect or the level left. As to conditions: dose 25 µg/ml.
The test system of test [16] is Staphylococcus aureus. The test can be described thus: Antibiofilm activity against methicillin-resistant Staphylococcus aureus CH 10850 at 33.2 ug/ml relative to control. As to conditions: dose 33.2 µg/ml.
Test [17] deals with Candida albicans. Kind of test: Antibiofilm activity against Candida albicans assessed as reduction in biofilm formation at 50 ug/ml measured after 48 hrs by crystal violet staining based analysis relative to control. As to conditions: dose 50 µg/ml. Also on record: scale not given: the % may be the effect or the level left.
Test [18] relates to Staphylococcus aureus. Kind of test: Antibiofilm activity against Staphylococcus aureus ATCC 6538 at 6.25 ug/ml relative to control. As to conditions: dose 6.25 µg/ml.
Test [19] relates to Staphylococcus epidermidis. The test can be described thus: Antibiofilm activity against Staphylococcus epidermidis RP62A at 256 ug/ml relative to control. As to conditions: dose 256 µg/ml.
Test [20] deals with Serratia marcescens. Kind of test: Antibiofilm activity against Serratia marcescens at 30 ug/ml relative to control. As to conditions: dose 30 µg/ml.
The test system of another test is Listeria monocytogenes. Kind of test: Antibiofilm activity against Listeria monocytogenes ATCC 19111 at 256 ug/ml relative to control. As to conditions: dose 256 µg/ml.

As to `NCCc1ccc(O)cc1` [TYRAMINE], the Activity in the test on Pseudomonas aeruginosa [1] is listed as 28%.
Take `CCCCCCCCCCCCCCCC(=O)NC(CO)C(=O)NC(CC(=O)O)C(=O)NC(C(=O)NC(CO)C(=O)NC(CO)C(=O)O)C(C)C` (stereo unspecified) (Palmitoyl-SDVSS-OH; configuration not given here): the Activity with Staphylococcus aureus [2], with Bacillus subtilis [3] and with Vibrio cholerae was 99% each time.
`NC1=N[C@]23CCCN2C(=O)c2[nH]c(Br)c(Br)c2[C@@H]3N1` yielded an Activity in the test with Escherichia coli of 50%.
For the compound `Cc1cc(O)c2c(c1)C(=O)c1cc(O)cc(O)c1C2=O` [EMODIN], the Activity in the test with Streptococcus mutans [4] is listed as 90%; in the test on Staphylococcus aureus [5], >50%.
For `OCCc1ccc(O)cc1` [TYROSOL], in the test on Serratia marcescens [6], the Activity is 85.7%.
As to `C[C@H](CC[C@H](C)C(C)(C)C)[C@H]1CC[C@H]2C3C[C@H](OS(=O)(=O)[O-])[C@H]4C[C@H](OS(=O)(=O)[O-])[C@@H](OS(=O)(=O)[O-])C[C@]4(C)[C@H]3CC[C@]12C.[Na+].[Na+].[Na+]` (stereo partly specified), the Activity was 85.2% with Streptococcus mutans [7] and 99.5% in the test on Streptococcus mutans [8].
With `C/C=C1\C(=O)/C(=C(/O)C(C)CCCCCC)C(=O)N1C` (stereo unspecified) [PENICILLENOL B2], the Activity with Candida albicans [9] came out at 80%.
With `CC(=O)NCCc1ccc(O)cc1`, the Activity with Pseudomonas aeruginosa [1] stood at 28%.
As for `COc1cc(-c2ccccn2)nc(CO)c1SC`, the Activity in the test on Staphylococcus aureus [10] is >90%.
Turning to `CCCCCCCCCCCCCC1NC(=O)C(C(C)CC)NC(=O)C(CC(C)C)NC(=O)C(CC(=O)OC)NC(=O)C(CC(C)C)NC(=O)C(CC(C)C)NC(=O)C(CC(C)C)NC(=O)C(CCC(=O)OC)NC1=O` (stereo unspecified) (cyclo([X1]E(OMe)LLLD(OMe)LI); configuration not given here), the Activity in the test on Bacillus sp., with Pseudomonas aeruginosa [11], in the test on Bacillus subtilis [12] and with Vibrio anguillarum was >50% in each case.
`CCCCCCCCCCCCCCCC(=O)OC[C@H]1O[C@H](O)[C@H](O)[C@@H](O)[C@@H]1O`: the Activity in the test on Pseudomonas aeruginosa [13] was >70%; in the test with Candida albicans [14] it was >50%; with Bacillus pumilus, >50%; in the test on Pseudomonas aeruginosa [15], >50%.
In the case of `CCCCCCCCCCCCCCC1NC(=O)C(C(C)CC)NC(=O)C(CC(C)C)NC(=O)C(CC(=O)OC)NC(=O)C(CC(C)C)NC(=O)C(CC(C)C)NC(=O)C(CC(C)C)NC(=O)C(CCC(=O)OC)NC1=O` (stereo unspecified) (cyclo([ξGly(tetradecyl)]E(OMe)LLLD(OMe)LI); configuration not given here), the Activity in the test with Bacillus sp., in the test with Pseudomonas aeruginosa [11], with Bacillus subtilis [12] and with Vibrio anguillarum was >50% throughout.
In turn, `CC(=O)O[C@@H]1O[C@H]2OC(=O)C3=C(C)[C@@](C)([C@@]4(C)CCCC(C)(C)C4)CC[C@@H]1[C@H]32` returned an Activity in the test with Staphylococcus aureus [16] of 50%.
On to `CCCCCCC(C)/C(O)=C1\C(=O)[C@@H](C(C)O)N(C)C1=O` (stereo partly specified), for which the Activity in the test on Candida albicans [17] was found to be 80%.
Regarding `COC(=O)[C@@]12Oc3ccc(-c4ccc5c(c4O)C(=O)C4=C(O)C[C@H](C)[C@H](O)[C@]4(C(=O)OC)O5)c(O)c3C(=O)C1=C(O)C[C@H](C)[C@@H]2O` [SECALONIC ACID B], in the test on Staphylococcus aureus [18], the Activity is recorded as >90%.
As to `CC(C)C[C@@H]1NC(=O)[C@@H]2CCCN2C1=O`, the Activity in test [19] is 82%; with Serratia marcescens [20], 53.5%; in the test on Listeria monocytogenes, 86.9%.
